Laboratory results reported in patent US7462600B2, “Macrolides” (Pfizer Inc, priority 2004, dated 2008).
In brackets after ≈: the same amount, converted by molar mass. Where two headings read alike, the source gives them in different places.

Key:
Format in all cases: cell-based
[1] = test system: Streptococcus pyogenes 1079; experiment: MIC, microtiter broth dilution (NCCLS M100-S14), S. pyogenes 1079 (ermB)
Description: (§1) The assay described herein includes a panel of bacterial strains assembled to include a variety of target pathogenic species, including representatives of macrolide resistance mechanisms that have been characterized. In many cases, both the macrolide-susceptible parent strain and the macrolide-resistant strain derived from it are available to provide a more accurate assessment of the compound's ability to circumvent the resistance mechanism. The assay is performed in microtiter trays and interpreted according to Performance Standards for Antimicrobial Susceptibility Testing; 14th Informational Supplement (M100-S14), published by The National Committee for Clinical Laboratory Standards (NCCLS) guidelines; the MIC is used to compare strains. Compounds are initially dissolved in DMSO as 40 mg/ml stock solutions.

[2] = test system: Haemophilus influenzae 1218; experiment: MIC, microtiter broth dilution (NCCLS M100-S14), H. influenzae 1218 (susceptible)
Description: as §1

[3] = test system: Streptococcus pneumoniae 1016; experiment: MIC, microtiter broth dilution (NCCLS M100-S14), S. pneumoniae 1016 (susceptible)
Description: as §1

[4] = test system: Streptococcus pneumoniae 1175; settings: microtiter broth dilution
Description: as §1

[5] = test system: Streptococcus pneumoniae 1095; settings: microtiter broth dilution
Description: as §1

[6] = H. influenzae 1218 (susceptible)
[7] = S. pneumoniae 1016 (susceptible)

SMILES | MIC S. pyogenes 1079 ([1]; Streptococcus pyogenes 1079) [µg/mL] | MIC H. influenzae 1218 ([2]; Haemophilus influenzae 1218) [µg/mL] | MIC S. pneumo. 1016 ([3]; Streptococcus pneumoniae 1016) [µg/mL] | MIC S. pneumo. 1175 ([4]; Streptococcus pneumoniae 1175) [µg/mL] | MIC S. pneumo. 1095 ([5]; Streptococcus pneumoniae 1095) [µg/mL] | MIC S. pyogenes 1079 ([1]; S. pyogenes 1079 (ermB)) [µg/mL] | MIC H. influenzae 1218 [2, 6] [µg/mL] | MIC S. pneumo. 1016 [3, 7] [µg/mL] | MIC S. pneumo. 1175 ([4]; S. pneumoniae 1175 (mefA)) [µg/mL] | MIC S. pneumo. 1095 ([5]; S. pneumoniae 1095 (ermB)) [µg/mL]
CCC1OC(=O)C(C)C(=O)C(C)C(OC2OC(C)CC(N(C)C)C2O)C(C)(OC)CC(C)C(=O)C(C)C2N(C3CN(Cc4cc(OC)nc5ccccc45)C3)C(=O)OC12C (stereo not shown) [Example 1.39, (2-methoxyquinolin-4-yl)methyl] | 16 (≈ 19.1 µM) | 1 (≈ 1.19 µM) | <0.06 | 0.25 (≈ 0.298 µM) | <0.06 | – | – | – | – | –
CCC1OC(=O)C(C)C(=O)C(C)C(OC2OC(C)CC(N(C)C)C2O)C(C)(OC)CC(C)C(=O)C(C)C2N(C3CN(Cc4ccccc4)C3)C(=O)OC12C (stereo not shown) [Example 1.01, benzyl] | >64.00 | 0.5 (≈ 0.66 µM) | <0.06 | 0.12 (≈ 0.158 µM) | <0.06 | – | – | – | – | –
CCC1OC(=O)C(C)C(=O)C(C)C(OC2OC(C)CC(N(C)C)C2O)C(C)(OC)CC(C)C(=O)C(C)C2N(C3CN(S(=O)(=O)c4ccc5nn(C)cc5c4)C3)C(=O)OC12C (stereo not shown) [Example 3.96, 3-descladinosyl-11,12-dideoxy-6-O-methyl-3-oxo-12,11-(oxycarbonyl-(1-(2-methyl-2H-indazole-5-sulfonyl)-azetidin-3-yl)-imino)erythromycin A] | 1 (≈ 1.16 µM) | 1 (≈ 1.16 µM) | <0.06 | 2 (≈ 2.32 µM) | 0.12 (≈ 0.139 µM) | – | – | – | – | –
CCC1OC(=O)C(C)C(=O)C(C)C(OC2OC(C)CC(N(C)C)C2O)C(C)(OC)CC(C)C(=O)C(C)C2N(C3CN(Cc4ccnc5ncccc45)C3)C(=O)OC12C (stereo not shown) [Example 1.20, 3-descladinosyl-11,12-dideoxy-6-O-methyl-3-oxo-12,11-(oxycarbonyl-(1-((1,8-naphthyridin-4-yl)-methyl)-azetidin-3-yl)-imino)erythromycin A] | 1 (≈ 1.23 µM) | 0.25 (≈ 0.309 µM) | <0.06 | 0.12 (≈ 0.148 µM) | <0.06 | – | – | – | – | –
CCC1OC(=O)C(C)C(=O)C(C)C(OC2OC(C)CC(N(C)C)C2O)C(C)(OC)CC(C)C(=O)C(C)C2N(C3CN(S(=O)(=O)c4ccc5oc(=O)[nH]c5c4)C3)C(=O)OC12C (stereo not shown) [Example 3.22, 3-descladinosyl-11,12-dideoxy-6-O-methyl-3-oxo-12,11-(oxycarbonyl-(1-(2,3-dihydro-2-oxobenzo[d]oxazole-5-sulfonyl)-azetidin-3-yl)-imino)-erythromycin A] | 1 (≈ 1.16 µM) | 0.25 (≈ 0.289 µM) | <0.06 | 0.5 (≈ 0.578 µM) | 4 (≈ 4.62 µM) | – | – | – | – | –
CCC1OC(=O)C(C)C(=O)C(C)C(OC2OC(C)CC(N(C)C)C2O)C(C)(OC)CC(C)C(=O)C(C)C2N(CC3CN(Cc4ccn[nH]4)C3)C(=O)OC12C (stereo not shown) [4.09] | >64.00 | 0.12 (≈ 0.157 µM) | <0.06 | 0.5 (≈ 0.656 µM) | 32 (≈ 42 µM) | – | – | – | – | –
CCC1OC(=O)C(C)C(=O)C(C)C(OC2OC(C)CC(N(C)C)C2O)C(C)(OC)CC(C)C(=O)C(C)C2N(CC3CCCN3C(=O)c3ccc4ncccc4c3)C(=O)OC12C (stereo not shown) [12.06] | – | – | – | – | – | >64.00 | 2 (≈ 2.35 µM) | <0.06 | 1 (≈ 1.18 µM) | 0.25 (≈ 0.294 µM)
CCC1OC(=O)C(C)C(=O)C(C)C(OC2OC(C)CC(N(C)C)C2O)C(C)(OC)CC(C)C(=O)C(C)C2N(C3CN(S(=O)(=O)c4ccc(-n5cccn5)nc4)C3)C(=O)OC12C (stereo not shown) [Example 3.16, 3-descladinosyl-11,12-dideoxy-6-O-methyl-3-oxo-12,11-(oxycarbonyl-(1-(6-(1H-pyrazol-1-yl)pyridine-3-sulfonyl)-azetidin-3-yl)-imino)-erythromycin A] | 1 (≈ 1.14 µM) | 0.5 (≈ 0.571 µM) | <0.06 | <0.06 | <0.06 | – | – | – | – | –
CCC1OC(=O)C(C)C(=O)C(C)C(OC2OC(C)CC(N(C)C)C2O)C(C)(OC)CC(C)C(=O)C(C)C2N(C3CN(S(=O)(=O)c4c[nH]c(=O)[nH]c4=O)C3)C(=O)OC12C (stereo not shown) [Example 3.30, 1,2,3,4-tetrahydro-2,4-dioxopyrimidine-5-sulfonyl] | >64.00 | 32 (≈ 38 µM) | 1 (≈ 1.19 µM) | 32 (≈ 38 µM) | >64.00 | – | – | – | – | –
CCC1OC(=O)C(C)C(=O)C(C)C(OC2OC(C)CC(N(C)C)C2O)C(C)(OC)CC(C)C(=O)C(C)C2N(CC3CCN(Cc4ccc(OC)nc4)CC3)C(=O)OC12C (stereo not shown) [15.04] | – | – | – | – | – | >64.00 | 16 (≈ 19.3 µM) | <0.06 | 0.5 (≈ 0.602 µM) | >64.00
CCC1OC(=O)C(C)C(=O)C(C)C(OC2OC(C)CC(N(C)C)C2O)C(C)(OC)CC(C)C(=O)C(C)C2N(CC3CCCN3Cc3ccno3)C(=O)OC12C (stereo not shown) [12.04] | – | – | – | – | – | >64.00 | 2 (≈ 2.57 µM) | <0.06 | 1 (≈ 1.29 µM) | 4 (≈ 5.15 µM)
CCOc1ccc2ccccc2c1CN1CC(N2C(=O)OC3(C)C(CC)OC(=O)C(C)C(=O)C(C)C(OC4OC(C)CC(N(C)C)C4O)C(C)(OC)CC(C)C(=O)C(C)C23)C1 (stereo not shown) [Example 1.97, 3-descladinosyl-11,12-dideoxy-6-O-methyl-3-oxo-12,11-(oxycarbonyl-(1-(2-ethoxynaphthalene-1-methyl)-azetidin-3-yl)-imino)-erythromycin A] | 2 (≈ 2.35 µM) | 0.5 (≈ 0.587 µM) | <0.063 | <0.063 | <0.063 | – | – | – | – | –
CC[C@H]1OC(=O)[C@H](C)C(=O)[C@H](C)[C@@H](O[C@@H]2O[C@H](C)C[C@H](N(C)C)[C@H]2O)[C@](C)(OC)C[C@@H](C)C(=O)[C@H](C)[C@H]2N(CC3(C)CN(Cc4ccc5ncccc5c4)C3)C(=O)O[C@]12C [6.01] | >64.00 | 1 (≈ 1.19 µM) | <0.06 | 0.5 (≈ 0.597 µM) | 0.5 (≈ 0.597 µM) | – | – | – | – | –
CCC1OC(=O)C(C)C(=O)C(C)C(OC2OC(C)CC(N(C)C)C2O)C(C)(OC)CC(C)C(=O)C(C)C2N(CC3CCN(C(=O)c4cnc5ccccc5c4)C3)C(=O)OC12C (stereo not shown) [11.17] | – | – | – | – | – | >64.00 | 4 (≈ 4.7 µM) | <0.06 | 2 (≈ 2.35 µM) | 8 (≈ 9.4 µM)
CCC1OC(=O)C(C)C(=O)C(C)C(OC2OC(C)CC(N(C)C)C2O)C(C)(OC)CC(C)C(=O)C(C)C2N(CC3CCCN3C(=O)c3cc4ccccn4n3)C(=O)OC12C [Example 10.14, 3-descladinosyl-11,12-dideoxy-6-O-methyl-3-oxo-12,11-(oxycarbonyl-((1-(pyrazolo[1,5-a]pyridine-2-carbonyl)-(R)-pyrrolidin-2-yl)-methyl)-imino)-erythromycin A] | – | – | – | – | – | 32 (≈ 38.1 µM) | 0.25 (≈ 0.298 µM) | <0.06 | 0.12 (≈ 0.143 µM) | <0.06
CC[C@H]1OC(=O)[C@H](C)C(=O)[C@H](C)[C@@H](O[C@@H]2O[C@H](C)C[C@H](N(C)C)[C@H]2O)[C@](C)(OC)C[C@@H](C)C(=O)[C@H](C)[C@H]2N(CC3(C)CN(Cc4ccc5[nH]ccc5c4)C3)C(=O)O[C@]12C [6.10] | – | – | – | – | – | >64.00 | 1 (≈ 1.21 µM) | <0.06 | 0.12 (≈ 0.145 µM) | 0.25 (≈ 0.303 µM)
CCC1OC(=O)C(C)C(=O)C(C)C(OC2OC(C)CC(N(C)C)C2O)C(C)(OC)CC(C)C(=O)C(C)C2N(C3CN(C(=O)NCc4ccc5ncccc5c4)C3)C(=O)OC12C (stereo not shown) [Example 2.10, N-((quinolin-6-yl)inethyl) aminocarbonyl] | >64.00 | 2 (≈ 2.35 µM) | <0.06 | 0.25 (≈ 0.293 µM) | 8 (≈ 9.39 µM) | – | – | – | – | –
